Source: paper PMC10501326, “A Phase I Study of the Pan-Notch Inhibitor CB-103 for Patients with Advanced Adenoid Cystic Carcinoma and Other Tumors” (Cancer Research Communications, 2023)

Legend:
[1] = system: myeloma cell lines; design: method as in PMID 21159606; conditions: cited from earlier work
[2] = system: NOTCH-mutated advanced ACC; conditions: 77 patients, cited from earlier work
[3] = Phase I/II safety and tolerability: DLTs and treatment-related adverse events (CTCAE v4.03); assay type: in vivo; conditions: added to CB-103; one patient
Excerpt: The study was an open-label, nonrandomized, phase I/II dose-escalation study with planned expansion cohorts. […] Part B was a potential expansion phase at the MTD/RP2D to determine preliminary evidence of antitumor activity and to confirm safety among patients stratified by preselected cancer indications.
Part A was based on a two-parameter Bayesian logistic regression model (BLRM) to investigate safety and tolerability of sequentially enrolled dose cohorts of 3–6 patients. The first 2 participants of each cohort were enrolled in a staggered approach with at least 1 day apart between first dosing.
(§1) 12-lead electrocardiograms and Holter safety monitoring with periodic cardiac imaging was employed. Efficacy assessments used RECIST v1.1 applied to CT/MRI scans performed at screening and every 8 weeks; or evaluated complete remission with complete hematologic recovery by National Comprehensive Cancer Network guideline criteria for T-ALL/T-LBL. Adherence to study drug administration was evaluated using both patient diaries and capsule counts.
Secondary endpoints included assessment of clinical benefit rate [CBR; defined as achieving complete and/or partial response and/or stable disease (SD) at prespecified benchmarks], duration of response, progression-free survival (PFS) and overall survival (OS), and plasma pharmacokinetics.
The SS was the primary population for all safety and efficacy analyses, except for determination of dose-DLT relationship.
Under this model, and accounting for dropouts and some additional patients enrolled to each cohort, approximately 55 patients were anticipated to enroll in dose escalation and approximately 45 patients in the confirmatory phase. […] All statistical analyses were analyzed using SAS v9.4 software.

[4] = system: advanced solid tumors, adenoid cystic carcinoma (ACC); test: Antitumor efficacy and survival (RECIST v1.1 response, CBR, PFS, OS); assay type: in vivo, human
Excerpt: The study enrolled adults with histologically confirmed, locally advanced and/or metastatic solid tumors who had progressed on at least one line of prior systemic therapy (except for ACC) and relapsed/refractory T-ALL/LBL for whom no standard therapy was available. In dose escalation, participants with solid tumors with known or frequent Notch pathway–activating mutations were eligible (breast cancer, gastrointestinal tumors, hepatocellular carcinoma, osteosarcoma, malignant glomus tumor, and ACC), while the confirmatory cohort planned to enroll participants with selected tumor types (including T-ALL/LBL) and confirmed Notch pathway activation. Key eligibility criteria included patients ≥18 years of age with evaluable disease, Eastern Cooperative Oncology Group (ECOG) performance status 0–1, able to swallow capsules, and adequate organ function. Participants were excluded if they had clinically significant cardiac disease or thromboembolic events within the preceding 6 months, and drugs prolonging the QTc were avoided. A complete list of eligibility criteria is outlined in the Supplementary Materials and Methods.
as §1, with “Safety was assessed via monitoring of DLTs during the first treatment cycle, and of AEs, physical exam, and clinical lab results (hematology, coagulation, blood chemistry, urinalysis, and cardiac markers) throughout the study (Supplementary Table S1). 12-lead” for “12-lead”
The primary endpoint for dose escalation was the number of patients experiencing DLT during the first 28-day cycle of CB-103 and for the confirmatory phase, the incidence rate, severity, and relationship of AEs to CB-103. Secondary endpoints included assessment of clinical benefit rate [CBR; defined as achieving complete and/or partial response and/or stable disease (SD) at prespecified benchmarks], duration of response, progression-free survival (PFS) and overall survival (OS), and plasma pharmacokinetics.
The objective of the BLRM design ([10]) was to determine the MTD defined as the highest dose with less than 25% risk of the true DLT rate being above 33%. The MTD was considered reached if one of the following criteria was fulfilled: (i) if the posterior probability of the true DLT rate in the target interval (16%–33%) of the MTD was >50%, and (ii) at least 6 patients were treated at the MTD. Under this model, and accounting for dropouts and some additional patients enrolled to each cohort, approximately 55 patients were anticipated to enroll in dose escalation and approximately 45 patients in the confirmatory phase. Data were reported using 95% confidence intervals (CI) and survival endpoints (PFS, OS) are reported from the time of first treatment to the first of progression or death summarized by Kaplan–Meier estimates. All statistical analyses were analyzed using SAS v9.4 software.

[5] = advanced ACC population; cited from earlier work

CN(C)CC[C@H](CSc1ccccc1)Nc1ccc(S(=O)(=O)NC(=O)c2ccc(N3CCN(Cc4ccccc4-c4ccc(Cl)cc4)CC3)cc2)cc1[N+](=O)[O-] [ABT-737]
Effect of combining with a GSI [1]: synergism

CN1C(=O)[C@@H](NC(=O)[C@H](CCC(F)(F)F)[C@H](CCC(F)(F)F)C(N)=O)N=C(c2ccccc2)c2ccccc21 [AL101]
Disease control rate ([2]; benchmark not reported): 69% | Partial response rate [2]: 12% | Patients exhibiting SD [2]: 57%

CC1(C)CCC(CN2CCN(c3ccc(C(=O)NS(=O)(=O)c4ccc(NCC5CCOCC5)c([N+](=O)[O-])c4)c(Oc4cnc5[nH]ccc5c4)c3)CC2)=C(c2ccc(Cl)cc2)C1 [Venetoclax, reference compound]
Tolerance in combination [3]: good tolerance | Effect of off-label addition to CB-103 after first progression ([4]; 1 patient with NOTCH1-activating metastatic ACC and tumor BCL2 overexpression): additional tumor growth stabilization | Further disease stabilization, additional time ([4]; off-label, added to CB-103 upon signs of disease progression, one patient, NOTCH1-activated metastatic ACC, BCL2 overexpression): 3.5 months

CNC(=O)c1ccccc1Sc1ccc2c(/C=C/c3ccccn3)n[nH]c2c1 [axitinib]
Discontinuation rates for toxicity [5]: ≥ 20%
